Data from PubChem BioAssay AID248 (DTP/NCI, 2004).
Where “and” joins values, the source holds several entries; their conditions need not be identical. Equal values may be shown once. Toxic doses and inconclusive results are not listed. Cut-off read from the data, not from the text of the source: active = T/C of 150% or more; inactive = T/C below 125%. Numbered stars: 1 amine (or outer) side, 2 acyl side, 3 side chain; on linkers, the order of the positions; unused ones are H or OH. Bridge positions count the residues as written; N and C are the ends. Square brackets hold non-standard residues; d marks the D form. Peptide text beside a SMILES is read from it. I, II: the chains in the order shown. Actinocin(9to1) = Cc1c2oc3c(C)ccc(C(=O)[*:1])c3nc-2c(C(=O)[*:2])c(N)c1=O; NMeV = CN[CH](C(=O)O)C(C)C; Sar = CNCC(=O)O

Test system: L1210 leukemia ip in BDF1 mice, survival T/C
Assay: NCI In Vivo Anticancer Drug Screen. Data for tumor model L1210 Leukemia (intraperitoneal) in B6D2F1 (BDF1) mice
Conditions: endpoint: mean survival time, higher = longer survival
Procedure, shortened: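 Tumor cells were implanted, animals were treated, and survival was followed. The result divides the treated measurement by the vehicle-control measurement.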

[1] = dose: 100.0 mg/kg/injection, schedule: Q01DX001 (ip), vehicle: Klucel (hydroxypropylcellulose) (HPC)
[2] = dose: 200.0 mg/kg/injection, schedule: Q01DX001 (ip), vehicle: Klucel (hydroxypropylcellulose) (HPC)
[3] = dose: 400.0 mg/kg/injection, schedule: Q01DX001 (ip), vehicle: Klucel (hydroxypropylcellulose) (HPC)
[4] = dose: 100.0 mg/kg/injection, schedule: Q04DX003 (ip), vehicle: saline
[5] = dose: 12.5 mg/kg/injection, schedule: Q01DX009 (ip), vehicle: saline with Tween-80
[6] = dose: 100.0 mg/kg/injection, schedule: Q04DX002 (ip), vehicle: Klucel (hydroxypropylcellulose) (HPC)
[7] = dose: 200.0 mg/kg/injection, schedule: Q04DX002 (ip), vehicle: Klucel (hydroxypropylcellulose) (HPC)
[8] = dose: 400.0 mg/kg/injection, schedule: Q04DX002 (ip), vehicle: Klucel (hydroxypropylcellulose) (HPC)
[9] = dose: 400.0 mg/kg/injection, schedule: Q04DX003 (ip), vehicle: saline with Tween-80
[10] = dose: 100.0 mg/kg/injection, schedule: Q01DX009 (ip), vehicle: Klucel (hydroxypropylcellulose) (HPC)
[11] = dose: 200.0 mg/kg/injection, schedule: Q01DX009 (ip), vehicle: Klucel (hydroxypropylcellulose) (HPC)
[12] = dose: 400.0 mg/kg/injection, schedule: Q01DX009 (ip), vehicle: Klucel (hydroxypropylcellulose) (HPC)
[13] = dose: 100.0 mg/kg/injection, schedule: Q04DX003 (ip), vehicle: Klucel (hydroxypropylcellulose) (HPC)
[14] = dose: 200.0 mg/kg/injection, schedule: Q04DX003 (ip), vehicle: Klucel (hydroxypropylcellulose) (HPC)
[15] = dose: 100.0 mg/kg/injection, schedule: Q01DX001 (ip), vehicle: carboxymethylcellulose (CMC)

Measured: T/C

O=C(Nc1cccc(CO)c1)c1ccc(S(=O)(=O)F)cc1
inactive: [1] 99 % of control | [2] 89 % of control | [3] 94 % of control

COc1ccc(CCN(C)C(C)C2C3CC4CC(C3)CC2C4)cc1OC (stereo not given)
inactive: [4] 101 % of control | dose: 200.0 mg/kg/injection, schedule: Q04DX003 (ip), vehicle: saline 94 % of control

Clc1ccc2nnnn2n1
inactive: [5] 97 % of control | dose: 25.0 mg/kg/injection, schedule: Q01DX009 (ip), vehicle: saline with Tween-80 100 % of control | dose: 50.0 mg/kg/injection, schedule: Q01DX009 (ip), vehicle: saline with Tween-80 110 % of control | dose: 62.5 mg/kg/injection, schedule: Q04DX003 (ip), vehicle: saline 109 % of control | [6] 115 % of control | dose: 125.0 mg/kg/injection, schedule: Q04DX003 (ip), vehicle: saline 109 % of control | [7] 115 % of control | [8] 112 % of control

O=S1(=O)CC(Cl)C(I)C1 (stereo not given)
inactive: dose: 100.0 mg/kg/injection, schedule: Q01DX009 (ip), vehicle: saline with Tween-80 102 % of control | dose: 200.0 mg/kg/injection, schedule: Q01DX009 (ip), vehicle: saline with Tween-80 109 % of control

c1ccc(N/N=C(\Sc2ccccc2)c2ccccc2)cc1
inactive: dose: 100.0 mg/kg/injection, schedule: Q04DX003 (ip), vehicle: saline with Tween-80 113 % of control | dose: 200.0 mg/kg/injection, schedule: Q04DX003 (ip), vehicle: saline with Tween-80 102 % of control | [9] 94 % of control

Cc1c2oc3c(C)ccc(C(=O)NC4C(=O)NC(C(C)C)C(=O)N(C)CC(=O)N(C)CC(=O)N(C)C(C(C)C)C(=O)OC4C)c3nc-2c(C(=O)NC2C(=O)NC(C(C)C)C(=O)N(C)CC(=O)N(C)CC(=O)N(C)C(C(C)C)C(=O)OC2C)c(N)c1=O (stereo not given) (I: TV[Sar][Sar][NMeV] / II: TV[Sar][Sar][NMeV]; ester I:1-I:C, II:1-II:C; linker I:N-II:N via Actinocin(9to1); configuration not given here)
inactive: dose: 0.05 mg/kg/injection, schedule: Q01DX009 (ip), vehicle: other 94 % of control | dose: 0.1 mg/kg/injection, schedule: Q01DX009 (ip), vehicle: other 108 % of control | dose: 0.2 mg/kg/injection, schedule: Q01DX009 (ip), vehicle: other 106 % of control | dose: 0.4 mg/kg/injection, schedule: Q01DX009 (ip), vehicle: other 115 % of control | dose: 0.5 mg/kg/injection, schedule: Q01DX001 (ip), vehicle: saline + alcohol 105 % of control | dose: 0.8 mg/kg/injection, schedule: Q01DX009 (ip), vehicle: other 120 % of control | dose: 1.0 mg/kg/injection, schedule: Q01DX001 (ip), vehicle: saline + alcohol 112 % of control | dose: 1.6 mg/kg/injection, schedule: Q01DX009 (ip), vehicle: other 92 % of control | dose: 2.0 mg/kg/injection, schedule: Q01DX001 (ip), vehicle: saline + alcohol 116 % of control | dose: 4.0 mg/kg/injection, schedule: Q01DX001 (ip), vehicle: saline + alcohol 113 % of control | dose: 62.5 micrograms/kg/injection, schedule: Q01DX009 (ip), vehicle: saline + alcohol 105 % of control | dose: 125.0 micrograms/kg/injection, schedule: Q01DX009 (ip), vehicle: saline + alcohol 112 % of control | dose: 188.0 micrograms/kg/injection, schedule: Q04DX003 (ip), vehicle: saline + alcohol 107 % of control | dose: 250.0 micrograms/kg/injection, schedule: Q01DX009 (ip), vehicle: saline + alcohol 119 % of control | dose: 375.0 micrograms/kg/injection, schedule: Q04DX003 (ip), vehicle: saline + alcohol 106 % of control | dose: 750.0 micrograms/kg/injection, schedule: Q04DX003 (ip), vehicle: saline + alcohol 112 % of control | dose: 1500.0 micrograms/kg/injection, schedule: Q04DX003 (ip), vehicle: saline + alcohol 119 % of control

C=C1C=C(C)N(C(=O)c2ccc(Cl)cc2)CCN1C(=O)c1ccc(Cl)cc1
inactive: [10] 100 % of control | [11] 90 % of control | [12] 92 % of control

O=C(O)CCC(=O)Nc1ccc(F)cc1
inactive: [10] 103 % of control | [11] 93 % of control | [12] 93 % of control

O=P(Oc1ccccc1)(Oc1ccccc1)C(Nc1ccccc1)c1ccccc1 (stereo not given)
inactive: [9] 90 % of control

CC(C)NC(=O)OC(C)C
inactive: [13] 96 % of control | [14] 104 % of control | dose: 400.0 mg/kg/injection, schedule: Q04DX003 (ip), vehicle: Klucel (hydroxypropylcellulose) (HPC) 98 % of control

N=c1ccc2nc3ccc(N)cc3sc-2c1
inactive: dose: 6.25 mg/kg/injection, schedule: Q01DX009 (ip), vehicle: saline 104 % of control | dose: 6.25 mg/kg/injection, schedule: Q04DX003 (ip), vehicle: saline 100 % of control | dose: 12.5 mg/kg/injection, schedule: Q01DX009 (ip), vehicle: saline 106 % of control | dose: 12.5 mg/kg/injection, schedule: Q04DX003 (ip), vehicle: saline 96 % of control | dose: 25.0 mg/kg/injection, schedule: Q01DX009 (ip), vehicle: saline 112 % of control | dose: 25.0 mg/kg/injection, schedule: Q04DX003 (ip), vehicle: saline 107 % of control | dose: 50.0 mg/kg/injection, schedule: Q01DX009 (ip), vehicle: saline 98 % of control | dose: 50.0 mg/kg/injection, schedule: Q04DX003 (ip), vehicle: saline 105 % of control | [4] 105 % of control

COc1ccc(OC(=O)Nc2cccc(Cl)c2)cc1
inactive: [10] 94 % of control | [11] 100 % of control | [12] 100 % of control

Cc1cccc2cc[nH]c12
inactive: dose: 50.0 mg/kg/injection, schedule: Q01DX001 (ip), vehicle: other 115 % of control | dose: 100.0 mg/kg/injection, schedule: Q01DX001 (ip), vehicle: other 87 % of control | dose: 200.0 mg/kg/injection, schedule: Q01DX001 (ip), vehicle: other 102 % of control | dose: 400.0 mg/kg/injection, schedule: Q01DX001 (ip), vehicle: other 96 % of control

O=C(Nc1cccc(C(F)(F)F)c1)Nc1ccc([N+](=O)[O-])cc1Cl
inactive: dose: 100.0 mg/kg/injection, schedule: Q01DX009 (ip), vehicle: gum acacia 88 % of control | dose: 200.0 mg/kg/injection, schedule: Q01DX009 (ip), vehicle: gum acacia 97 % of control | dose: 400.0 mg/kg/injection, schedule: Q01DX009 (ip), vehicle: gum acacia 96 % of control

Cc1ccc(N=Cc2ccc([N+](=O)[O-])s2)cc1Cl
inactive: [13] 91 % of control | [14] 89 % of control

O=C(O)c1cc([N+](=O)[O-])cc([N+](=O)[O-])c1 (tested in a mixture with another compound)
inactive: dose: 3.13 mg/kg/injection, schedule: Q04DX002 (ip), vehicle: saline with Tween-80 100 % of control | dose: 6.25 mg/kg/injection, schedule: Q04DX002 (ip), vehicle: saline with Tween-80 106 % of control | dose: 25.0 mg/kg/injection, schedule: Q04DX002 (ip), vehicle: saline with Tween-80 96 % of control and 100 % of control | dose: 50.0 mg/kg/injection, schedule: Q04DX002 (ip), vehicle: saline with Tween-80 114 % of control

C=CCOC(=O)C1(O)c2ccccc2NC(=S)N1CC=C (stereo not given)
inactive: [10] 104 % of control | [6] 97 % of control | [11] 93 % of control | [7] 97 % of control | [12] 93 % of control | [8] 100 % of control

COc1ccc([N+](=O)[O-])c2c(C)cc(=O)[nH]c12
inactive: [1] 100 % of control | [10] 104 % of control | [2] 94 % of control | [11] 97 % of control | [3] 94 % of control

OCc1ccccc1CO
inactive: [15] 95 % of control | dose: 200.0 mg/kg/injection, schedule: Q01DX001 (ip), vehicle: carboxymethylcellulose (CMC) 95 % of control | dose: 400.0 mg/kg/injection, schedule: Q01DX001 (ip), vehicle: carboxymethylcellulose (CMC) 98 % of control

O=[n+]1ccn2cc3ccccc3cc2c1
inactive: [5] 105 % of control

CCSC1OC(CO)C(O)C1Nc1ccc([N+](=O)[O-])cc1[N+](=O)[O-] (stereo not given)
inactive: dose: 50.0 mg/kg/injection, schedule: Q01DX001 (ip), vehicle: carboxymethylcellulose (CMC) 89 % of control | [15] 94 % of control

CC(=O)OC1CCC2(C)C(=CCC3C2CCC2(C)C3CCC2(O)C(C)=O)C1 (stereo not given)
inactive: [1] 101 % of control | [2] 97 % of control | [3] 98 % of control
